Reference: patent US20250320224A1 (DOMAIN THERAPEUTICS, priority 2022, published 2025)

These compounds were tested against T1, human PAR-2 (hPAR-2) receptor (Homo sapiens, UniProt P55085) (assay: In vitro human PAR-2 functional antagonist activity using calcium assays). Settings: hPAR-2 endogenously expressed in HEK-293 cells; stimulated by 2-Furoyl-LIGRLO-NH2 peptide; Fluo4AM intracellular calcium, FLIPR Tetra.
T1 construct: expressed in HEK-293 cells in an endogenous manner; endogenous in cells; host or cells: HEK-293
T1 sequence (P55085 26-397): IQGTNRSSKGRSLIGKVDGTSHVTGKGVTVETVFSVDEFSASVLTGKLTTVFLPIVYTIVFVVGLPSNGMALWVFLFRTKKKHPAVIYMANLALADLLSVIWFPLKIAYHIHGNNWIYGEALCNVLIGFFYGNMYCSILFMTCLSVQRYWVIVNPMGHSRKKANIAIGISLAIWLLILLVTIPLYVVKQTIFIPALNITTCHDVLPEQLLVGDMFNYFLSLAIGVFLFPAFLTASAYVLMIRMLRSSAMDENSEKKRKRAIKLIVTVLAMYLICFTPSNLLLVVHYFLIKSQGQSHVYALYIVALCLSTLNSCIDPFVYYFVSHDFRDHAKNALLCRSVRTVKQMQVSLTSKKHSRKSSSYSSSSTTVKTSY
Type: cell-based
Description: Example 283: In Vitro Human PAR-2 Functional Antagonist Activity Using Calcium Assays
Examples of the present invention were tested successively for their agonist and antagonist activities on human PAR-2 (hPAR-2) receptor expressed in HEK-293 cells in an endogenous manner. Compounds exert agonist activity if, by themselves in absence of the 2-Furoyl-LIGRLO-NH2 peptide (selective hPAR-2 agonist), they activate PAR-2; they exert antagonist activity if they decrease the action of the 2-Furoyl-LIGRLO-NH2 peptide on the receptor. The assay used to determine compound activity is based on calcium measurement.
Cell Culture: HEK-293 cells were maintained in Dulbecco's Modified Eagle's Medium supplemented with 10% Foetal Calf Serum, 1% Penicillin/Streptomycin at 37° C./5% CO2. Flasks for tests (F75) are seeded with 6e+06 cells 24 h before the experiment at 37° C./5% CO2.
Calcium assay: Receptor activity was detected by changes in intracellular calcium measured using the fluorescent Ca^2+ sensitive dye, Fluo4AM (Molecular Probes).
The day of the assay, medium was replaced by assay buffer (HBSS 1× (Gibco 14175-053), Hepes 20 mM, MgSO4-7H2O 1 mM, Na2CO3 3.3 mM, CaCl2—2H2O 2.6 mM, 0.5% bovine serum albumin (BSA), Probenecid 2.5 mM, 0.1 mg/mL Pluronic Acid) and complemented with 1 μM Fluo4AM and cells were incubated during 1:30 h at 37° C.
Cells were then detached, resuspended in assay buffer and seeded in 384 wells, transparent-flat bottom black walled plates (2e+04 cells per well). Plates were incubated at +22° C. for 20 min. Compounds stock solutions were prepared in 100% DMSO and dilutions in test buffer were carried out in polypropylene plates with a digital dispenser (D300e, Tecan). Compounds were added to the cells and intracellular Ca^2+ measurements were collected at the same time on FLIPR Tetra® (Molecular Devices) with specific filters (Exc: 470-495 nm/Em: 515-575 nm).
Agonist and antagonist activities of compounds were consecutively evaluated on the same cell plate. Agonist activity was first measured after 10 min incubation with the compound alone. Then, cells were stimulated by an […] of the 2-Furoyl-LIGRLO-NH2 peptide and fluorescence was recorded for an additional 5 min. EC50 of the 2-Furoyl-LIGRLO-NH2 peptide was the concentration giving 80% of the maximal 2-Furoyl-LIGRLO-NH2 response. Agonist activities are evaluated in comparison to basal signals evoked by assay buffer or maximal 2-Furoyl-LIGRLO-NH2 response. […] Antagonist activities are evaluated in comparison to basal signals evoked by assay buffer or EC50 of 2-Furoyl-LIGRLO-NH2 alone.

Row | Compound | IC50
1 | CC1(C)CN(c2ccc(Cl)c(F)c2)c2ccc(C(=O)N3[C@@H]4CC[C@H]3CC(CC(=O)O)C4)nc21 (mixture of isomers) [Example 130, 2-((1R,5S)-8-(1-(4-chloro-3-fluorophenyl)-3,3-dimethyl-2,3-dihydro-1H-pyrrolo[3,2-b]pyridine-5-carbonyl)-8-azabicyclo[3.2.1]octan-3-yl)acetic acid] | 500 to 10000 nM
2 | CC1(C)C(=O)NCCN1C(=O)c1ccc2c(n1)[C@]1(C)CCO[C@@H]1N2c1ccc(Cl)c(F)c1 (racemic) [Example 61, cis-4-(8-(4-chloro-3-fluorophenyl)-3a-methyl-3,3a,8,8a-tetrahydro-2H-furo[3′,2′:4,5]pyrrolo[3,2-b]pyridine-5-carbonyl)-3,3-dimethylpiperazin-2-one] | < 500 nM
3 | CC1(C)CN(c2ccc(Cl)c(F)c2)c2ccc(C(=O)N3CC[C@H](c4ccccn4)[C@H](C(=O)O)C3)nc21 (relative stereo) [Example 137, (cis)-1-(1-(4-chloro-3-fluorophenyl)-3,3-dimethyl-2,3-dihydro-1H-pyrrolo[3,2-b]pyridine-5-carbonyl)-4-(pyridin-2-yl)piperidine-3-carboxylic acid] | 500 to 10000 nM
4 | CC1(C)CN(c2ccc(Cl)c(F)c2)c2ccc(C(=O)N3CC[C@@H](c4ccccn4)[C@H](C(=O)O)C3)nc21 (relative stereo) [Example 138, (trans)-1-(1-(4-chloro-3-fluorophenyl)-3,3-dimethyl-2,3-dihydro-1H-pyrrolo[3,2-b]pyridine-5-carbonyl)-4-(pyridin-2-yl)piperidine-3-carboxylic acid] | 500 to 10000 nM
5 | CC1(C)C(=O)NCCN1C(=O)c1ccc2c(n1)[C@@]1(C)CCO[C@H]1N2c1ccc(Cl)c(F)c1 (single isomer, unassigned) [Example 62] | < 500 nM
6 | CC1(C)C(=O)NCCN1C(=O)c1ccc2c(n1)[C@]1(C)CCO[C@@H]1N2c1ccc(Cl)c(F)c1 (single isomer, unassigned) [Example 63] | 500 to 10000 nM
7 | Cc1cc(N2CCN(C(=O)c3ccc4c(n3)C3(CC(C)C3)CN4c3ccc(Cl)c(F)c3)C(C)(C)C2)nc(C)c1C(=O)O (single isomer, unassigned) [Example 156, 6-(4-(1′-(4-chloro-3-fluorophenyl)-3-methyl-1′,2′-dihydrospiro[cyclobutane-1,3′-pyrrolo[3,2-b]pyridine]-5′-carbonyl)-3,3-dimethylpiperazin-1-yl)-2,4-dimethylnicotinic acid] | < 500 nM
8 | COC1CC2(C1)CN(c1ccc(Cl)c(F)c1)c1ccc(C(=O)N3CCN(c4cc(C)c(C(=O)O)c(C)n4)CC3(C)C)nc12 (single isomer, unassigned) [Example 199, 6-(4-(1′-(4-chloro-3-fluorophenyl)-3-methoxy-1′,2′-dihydrospiro[cyclobutane-1,3′-pyrrolo[3,2-b]pyridine]-5′-carbonyl)-3,3-dimethylpiperazin-1-yl)-2,4-dimethylnicotinic acid] | < 500 nM
9 | CC1(C)C(=O)NCCN1C(=O)c1ccc2c(n1)C1(CCOCC1)C(=O)N2c1ccc(Cl)c(F)c1 [Example 1, 1′-(4-chloro-3-fluorophenyl)-5′-(2,2-dimethyl-3-oxopiperazine-1-carbonyl)-2,3,5,6-tetrahydrospiro[pyran-4,3′-pyrrolo[3,2-b]pyridin]-2′(1′H)-one] | 500 to 10000 nM
10 | CC1(C)C(=O)NCCN1C(=O)c1ccc2c(n1)C1(CCCC1)C(=O)N2c1ccc(Cl)c(F)c1 [Example 2, 1′-(4-chloro-3-fluorophenyl)-5′-(2,2-dimethyl-3-oxopiperazine-1-carbonyl)spiro[cyclopentane-1,3′-pyrrolo[3,2-b]pyridin]-2′(1′H)-one] | 500 to 10000 nM
11 | CC1(C)C(=O)NCCN1C(=O)c1ccc2c(n1)C1(CCCC1)CN2c1ccc(Cl)c(F)c1 [Example 3, 4-(1′-(4-chloro-3-fluorophenyl)-1′,2′-dihydrospiro[cyclopentane-1,3′-pyrrolo[3,2-b]pyridine]-5′-carbonyl)-3,3-dimethylpiperazin-2-one] | < 500 nM
12 | O=C1NC(=O)C2(CCN(C(=O)c3ccc4c(n3)C3(CCCC3)CN4c3ccc(Cl)c(F)c3)CC2)N1 [Example 4, 8-(1′-(4-chloro-3-fluorophenyl)-1′,2′-dihydrospiro[cyclopentane-1,3′-pyrrolo[3,2-b]pyridine]-5′-carbonyl)-1,3,8-triazaspiro[4.5]decane-2,4-dione] | < 500 nM
13 | CC1(C)CN(C(=O)c2ccc3c(n2)C2(CCCC2)CN3c2ccc(Cl)c(F)c2)CCC1C(=O)O (stereo not shown) [Example 6, 1-(1′-(4-chloro-3-fluorophenyl)-1′,2′-dihydrospiro[cyclopentane-1,3′-pyrrolo[3,2-b]pyridine]-5′-carbonyl)-3,3-dimethylpiperidine-4-carboxylic acid] | 500 to 10000 nM
14 | Cc1cc(N2CCN(C(=O)c3ccc4c(n3)C3(CCCC3)CN4c3ccc(Cl)c(F)c3)C(C)(C)C2)nc(C)c1C(=O)O [Example 8, 6-(4-(1′-(4-chloro-3-fluorophenyl)-1′,2′-dihydrospiro[cyclopentane-1,3′-pyrrolo[3,2-b]pyridine]-5′-carbonyl)-3,3-dimethylpiperazin-1-yl)-2,4-dimethylnicotinic acid] | < 500 nM
15 | CC1(C)C(=O)NCCN1C(=O)c1ccc2c(n1)C1(CCCC1)CN2c1cccc(Cl)c1 [Example 9, 4-(1′-(3-chlorophenyl)-1′,2′-dihydrospiro[cyclopentane-1,3′-pyrrolo[3,2-b]pyridine]-5′-carbonyl)-3,3-dimethylpiperazin-2-one] | < 500 nM
16 | CC1(C)C(=O)NCCN1C(=O)c1ccc2c(n1)C1(CCCC1)CN2c1ccccc1Cl [Example 10, 4-(1′-(2-chlorophenyl)-1′,2′-dihydrospiro[cyclopentane-1,3′-pyrrolo[3,2-b]pyridine]-5′-carbonyl)-3,3-dimethylpiperazin-2-one] | 500 to 10000 nM
17 | CC1(C)CN(c2ccsc2)c2ccc(C(=O)N3CCNC(=O)C3(C)C)nc21 [Example 11, 4-(3,3-dimethyl-1-(thiophen-3-yl)-2,3-dihydro-1H-pyrrolo[3,2-b]pyridine-5-carbonyl)-3,3-dimethylpiperazin-2-one] | 500 to 10000 nM
18 | CC1(C)CN(c2ccc(F)c(F)c2)c2ccc(C(=O)N3CCNC(=O)C3(C)C)nc21 [Example 12, 4-(1-(3,4-difluorophenyl)-3,3-dimethyl-2,3-dihydro-1H-pyrrolo[3,2-b]pyridine-5-carbonyl)-3,3-dimethylpiperazin-2-one] | < 500 nM
19 | Cc1cc(N2CCN(C(=O)c3ccc4c(n3)C(C)(C)CN4c3ccc(F)c(F)c3)C(C)(C)C2)nc(C)c1C(=O)O [Example 14, 6-(4-(1-(3,4-difluorophenyl)-3,3-dimethyl-2,3-dihydro-1H-pyrrolo[3,2-b]pyridine-5-carbonyl)-3,3-dimethylpiperazin-1-yl)-2,4-dimethylnicotinic acid] | < 500 nM
20 | CC1(C)CN(c2ccc(F)cc2)c2ccc(C(=O)N3CCNC(=O)C3(C)C)nc21 [Example 15, 4-(1-(4-fluorophenyl)-3,3-dimethyl-2,3-dihydro-1H-pyrrolo[3,2-b]pyridine-5-carbonyl)-3,3-dimethylpiperazin-2-one] | < 500 nM
21 | Cc1cc(N2CCN(C(=O)c3ccc4c(n3)C(C)(C)CN4c3cccc(F)c3)C(C)(C)C2)nc(C)c1C(=O)O [Example 17, 6-(4-(1-(3-fluorophenyl)-3,3-dimethyl-2,3-dihydro-1H-pyrrolo[3,2-b]pyridine-5-carbonyl)-3,3-dimethylpiperazin-1-yl)-2,4-dimethylnicotinic acid] | < 500 nM
22 | CC1(C)CN(c2ccc(Cl)c(F)c2)c2ccc(C(=O)N3CCNC(=O)C3(C)C)nc21 [Example 18, 4-(1-(4-chloro-3-fluorophenyl)-3,3-dimethyl-2,3-dihydro-1H-pyrrolo[3,2-b]pyridine-5-carbonyl)-3,3-dimethylpiperazin-2-one] | < 500 nM
